Source: patent US10245264B2, “Substituted imidazo[1,2-a]pyrazines as soluble guanylate cyclase activators” (Merck Sharp & Dohme Corp., priority 2015, dated 2019)

Molecular target: T1, sGC α1/β1 heterodimer stably expressed in CHO-K1 cells (CHO-K1/sGC) (Homo sapiens, UniProt Q02108+Q02153)
T1 construct: expressed in transfected cells
T1 sequence (Q02108 1-690): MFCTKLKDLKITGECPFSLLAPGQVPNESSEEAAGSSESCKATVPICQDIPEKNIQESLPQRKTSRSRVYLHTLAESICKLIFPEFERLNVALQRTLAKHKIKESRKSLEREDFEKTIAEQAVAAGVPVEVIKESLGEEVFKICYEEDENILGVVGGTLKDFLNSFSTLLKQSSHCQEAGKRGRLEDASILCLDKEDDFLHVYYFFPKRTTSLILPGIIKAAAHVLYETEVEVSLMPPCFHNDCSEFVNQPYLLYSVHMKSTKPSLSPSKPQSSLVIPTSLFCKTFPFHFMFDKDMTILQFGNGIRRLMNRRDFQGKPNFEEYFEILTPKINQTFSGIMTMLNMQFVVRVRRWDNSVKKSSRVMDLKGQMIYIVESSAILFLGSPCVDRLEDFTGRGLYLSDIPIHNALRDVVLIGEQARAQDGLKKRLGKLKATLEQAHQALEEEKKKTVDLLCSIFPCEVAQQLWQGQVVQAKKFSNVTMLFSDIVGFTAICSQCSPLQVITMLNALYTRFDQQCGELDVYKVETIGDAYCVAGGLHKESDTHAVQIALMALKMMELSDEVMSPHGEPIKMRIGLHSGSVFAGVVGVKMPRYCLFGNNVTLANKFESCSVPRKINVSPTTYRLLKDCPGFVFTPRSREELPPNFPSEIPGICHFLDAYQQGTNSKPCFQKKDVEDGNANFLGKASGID
T1 sequence (Q02153 1-619): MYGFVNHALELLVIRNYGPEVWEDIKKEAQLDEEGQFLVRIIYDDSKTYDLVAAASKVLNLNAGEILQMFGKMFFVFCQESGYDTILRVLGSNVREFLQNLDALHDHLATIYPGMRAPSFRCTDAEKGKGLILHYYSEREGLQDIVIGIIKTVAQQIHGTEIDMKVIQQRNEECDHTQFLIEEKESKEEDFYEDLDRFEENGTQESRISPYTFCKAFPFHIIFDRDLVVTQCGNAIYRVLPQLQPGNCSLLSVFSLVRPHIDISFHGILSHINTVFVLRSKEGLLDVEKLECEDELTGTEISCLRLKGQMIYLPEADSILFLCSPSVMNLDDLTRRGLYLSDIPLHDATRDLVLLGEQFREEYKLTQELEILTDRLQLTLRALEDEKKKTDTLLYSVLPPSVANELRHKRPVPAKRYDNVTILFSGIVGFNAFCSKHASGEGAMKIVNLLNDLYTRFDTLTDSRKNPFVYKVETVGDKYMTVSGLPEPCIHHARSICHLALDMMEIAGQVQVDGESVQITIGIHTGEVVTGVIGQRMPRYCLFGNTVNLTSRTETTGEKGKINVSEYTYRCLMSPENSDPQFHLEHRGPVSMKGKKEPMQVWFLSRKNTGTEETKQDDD
Assay: Cell-based sGC functional assay (CASA assay), cGMP generation by HTRF
Conditions: for Emax: CHO-K1, maximum cGMP production of Compound A set to 100% activation, read-out: % Act. (percent activation relative to Compound A); for EC50: CHO-K1/sGC cells, 1 hr at 37° C., 4P fit, presence or absence of DETA-NO not given, read-out: IP (nM) (inflection point)
From the text: Biological Assay 1: Cell-Based sGC Functional Assay (CASA Assay) Rationale
sGC is a heme-containing enzyme that converts GTP to secondary messenger cGMP. Increases in cGMP levels affect several physiological processes including vasorelaxation through multiple downstream pathways. […] Heme-dependent activators (HDAs) preferentially activate sGC containing a ferrous heme group. To determine the effect of sGC activators on enzyme activity, the CASA assay was developed to monitor the generation of cGMP in a cell line that stably expresses the heterodimeric sGC protein.
A CHO-K1 cell line stably expressing the sGC α1/β1 heterodimer was generated using a standard transfection protocol. CHO-K1 cells were transfected with plasmids pIREShyghsGCα1 and pIRESneo-hsGCβ1 simultaneously using FUGENE reagent. Clones that stably express both subunits were selected with hygromycin and neomycin for ˜2 weeks. Clone #7 was chosen for the assay and was designated CHO-K1/sGC. CHO-K1/sGC cells were maintained in F-K12 medium containing 10% heat-inactivated Fetal Bovine Serum (FBS), 100 μg/mL penicillin/streptomycin, 0.5 mg/mL hygromycin and 0.25 mg/mL G418. The cells were then cryopreserved in LN2. On the day of the assay, cells were thawed and resuspended in EBSS Assay Buffer (Sigma, E3024) supplemented with 5 mM MgCl2, 10 mM HEPES (4-(2-hydroxyethyl)piperazine-1-ethanesulfonic acid) and 0.05% BSA (bovine serum albumin) (EAB) and cell density was then adjusted to 4×10^5/mL with EAB. IBMX (3-isobutyl-1-methylxanthin, 0.5 mM) was added to inhibit degradation of cGMP. Compounds were diluted from DMSO stock solutions and added to the assay at a final DMSO concentration of 2.5%. Cells were incubated with compounds in the presence and absence of 1 μM of Diethylenetriamine/nitric oxide adduct (DETA-NO; Sigma, 17018) for 1 hr at 37° C. At the end of the incubation period, the reaction was terminated and the cells were lysed with the detection reagents from Cisbio Kits. The level of intracellular cGMP was determined using an HTRF-based assay kit (CisBio, 62GM2PEC), which detects the displacement of a fluorescence labeled cGMP from its specific antibody. The cGMP produced by test compounds was directly compared to the maximum cGMP production (this value was set to equal 100% activation.) of the published sGC-HDA Compound A:
[drawing 101] (Example 1 in WO 2010/065275, published Jun. 10, 2010). The test compounds' activities were then expressed as a percentage of Compound A, the standard in every experiment. This percent activation was calculated either in the presence or absence of DETA-NO which was then plotted. IP and maximum fold induction was derived using ADA analysis software for 4P fit.
The compounds in the Examples of the instant invention had inflection points (IP) less than or equal to 10 μM and many had IPs less than or equal to about 1 μM.

Compound	Emax [%]	EC50 [nM]	% Act. (percent activation relative to Compound A) (maximum cGMP production of Compound A set to 100% activation) [%]
CC(Nc1nc(-c2nc(N)c3c(n2)NC(=O)C3(C)c2ccc(Cl)cc2)cn2ccnc12)c1ccccc1 (centres unmarked) [Example 73, 4-amino-5-(4-chlorophenyl)-5-methyl-2-{8-[(1-phenylethyl)amino]imidazo [1,2-a]pyrazin-6-yl}-5,7-dihydro-6H-pyrrolo[2,3-d] pyrimidin-6-one]	81	336	
CC1(c2ccc(Cl)cc2)C(=O)Nc2nc(-c3cn4ccnc4c(OCC4CCCOC4)n3)nc(N)c21 (single isomer, unassigned; slow eluting) [Example 67B, 4-amino-5-(4-chlorophenyl)-5-methyl-2-[8-(tetrahydro-2H-pyran-3-ylmethoxy)imidazo[1,2-a]pyrazin-6-yl]-5,7-dihydro-6H-pyrrolo [2,3-d] pyrimidin-6-one (slow eluting)]		501	94
CC1(c2ccc(F)cc2)C(=O)Nc2nc(-c3cn4ccnc4c(NCC4CCCCC4)n3)nc(N)c21 (centres unmarked) [Example 55A, 4-amino-2-{8-[(cyclohexyl-methyl)amino]imidazo[1,2-a]pyrazin-6-yl}-5-(4-fluoro-phenyl)-5-methyl-5,7-dihydro-6H-pyrrolo[2,3-d] pyrimidin-6-one]	92	35	
CCC1(CNc2nc(-c3nc(N)c4c(n3)NC(=O)C4(C)c3ccc(F)cc3)cn3ccnc23)CC1 (centres unmarked) [Example 54A, 4-amino-2-(8-{[(1-ethyl-cyclopropyl)methyl]amino}imidazo[1,2-a]pyrazin-6-yl)-5-(4-fluoro-phenyl)-5-methyl-5,7-dihydro-6H-pyrrolo[2,3-d] pyrimidin-6-one]	98	266	
CC1(c2ccc(F)cc2)C(=O)Nc2nc(-c3cn4ccnc4c(Oc4ccc(F)cc4)n3)nc(N)c21 (centres unmarked) [Example 20A, 4-amino-2-[8-(4-fluorophenoxy)imidazo[1,2-a]pyrazin-6-yl]-5-(4-fluorophenyl)-5-methyl-5,7-dihydro-6H-pyrrolo[2,3-d] pyrimidin-6-one]	109	42	
CC1(c2ccccc2)C(=O)Nc2nc(-c3cn4ccnc4c(Oc4ccc(F)c(F)c4F)n3)nc(N)c21 (centres unmarked) [Example 11B, 4-amino-5-methyl-5-phenyl-2-[8-(2,3,4-trifluoro-phenoxy)imidazo [1,2-a]pyrazin-6-yl]-5,7-dihydro-6H-pyrrolo[2,3-d] pyrimidin-6-one]	104	138	
CC1(c2ccc(F)cc2)C(=O)Nc2nc(-c3cn4ccnc4c(Oc4ccc(F)cc4F)n3)nc(N)c21 (centres unmarked) [Example 19A, 4-amino-2-[8-(2,4-difluorophenoxy)imidazo[1,2-a]pyrazin-6-yl]-5-(4-fluorophenyl)-5-methyl-5,7-dihydro-6H-pyrrolo[2,3-d] pyrimidin-6-one]	109	74	
CC1(c2ccc(F)cc2)C(=O)Nc2nc(-c3cn4ccnc4c(Oc4cncc(C(F)(F)F)c4)n3)nc(N)c21 (centres unmarked) [Example 21A, 4-amino-5-(4-fluorophenyl)-5-methyl-2-(8-{[5-(trifluoromethyl)pyridin-3-yl]oxy}imidazo[1,2-a]pyrazin-6-yl)-5,7-dihydro-6H-pyrrolo[2,3-d] pyrimidin-6-one]	137	1060	
CC1(c2ccc(F)cc2)C(=O)Nc2nc(-c3cn4ccnc4c(Oc4cc(F)cc(F)c4F)n3)nc(N)c21 (centres unmarked) [Example 17A, 4-amino-5-(4-fluorophenyl)-5-methyl-2-[8-(2,3,5-trifluorophenoxy)imidazo[1,2-a]pyrazin-6-yl]-5,7-dihydro-6H-pyrrolo [2,3-d]pyrimidin-6-one]	100	17	
CC1(c2ccc(Cl)cc2)C(=O)Nc2nc(-c3cn4ccnc4c(OCc4ccccc4)n3)nc(N)c21 (centres unmarked) [Example 48A, 4-amino-2-[8-(benzyloxy)imidazo[1,2-a]pyrazin-6-yl]-5-(4-chlorophenyl)-5-methyl-5,7-dihydro-6H-pyrrolo[2,3-d] pyrimidin-6-one]	106	26	
CC(CNc1nc(-c2nc(N)c3c(n2)NC(=O)C3(C)c2ccc(F)cc2)cn2ccnc12)C(F)(F)F (racemic) [Example 70, 4-amino-5-(4-fluorophenyl)-5-methyl-2-{8-[(3,3,3-trifluoro-2-methylpropyl)amino]imidazo [1,2-a]pyrazin-6-yl}-5,7-dihydro-6H-pyrrolo[2,3-d] pyrimidin-6-one]	89	291	
CC1(c2ccc(F)cc2)C(=O)Nc2nc(-c3cn4ccnc4c(Oc4cccc(F)c4F)n3)nc(N)c21 (centres unmarked) [Example 15A, 4-amino-2-[8-(2,3-difluorophenoxy)imidazo[1,2-a]pyrazin-6-yl]-5-(4-fluorophenyl)-5-methyl-5,7-dihydro-6H-pyrrolo[2,3-d] pyrimidin-6-one]	104	23	
CCC1(CNc2nc(-c3nc(N)c4c(n3)NC(=O)C4(C)c3ccc(Cl)cc3)cn3ccnc23)CC1 (centres unmarked) [Example 57A, 4-amino-5-(4-chlorophenyl)-2-(8-{[(1-ethylcyclo-propyl)methyl]amino}imidazo [1,2-a]pyrazin-6-yl)-5-methyl-5,7-dihydro-6H-pyrrolo[2,3-d] pyrimidin-6-one]	123	47	
CC1(c2ccc(Cl)cc2)C(=O)Nc2nc(-c3cn4ccnc4c(OC4CCC(F)(F)CC4)n3)nc(N)c21 (centres unmarked) [Example 28A, 4-amino-5-(4-chlorophenyl)-2-{8-[(4,4-difluorocyclohexyl)oxy]imidazo[1,2-a]pyrazin-6-yl}-5-methyl-5,7-dihydro-6H-pyrrolo[2,3-d] pyrimidin-6-one]	139	1160	
C[C@H](Oc1nc(-c2nc(N)c3c(n2)NC(=O)C3(C)c2ccc(Cl)cc2)cn2ccnc12)c1ccccc1 (single isomer, unassigned; fast eluting) [Example 69A]	103	833	
CC1(c2ccc(F)cc2)C(=O)Nc2nc(-c3cn4ccnc4c(OCCC4CC(F)(F)C4)n3)nc(N)c21 (centres unmarked) [Example 42A, 4-amino-2-{8-[2-(3,3-difluoro-cyclobutyl)ethoxy]imidazo[1,2-a]pyrazin-6-yl}-5-(4-fluorophenyl)-5-methyl-5,7-dihydro-6H-pyrrolo[2,3-d] pyrimidin-6-one]	119	1350	
